Data on one compound can be found in patent EP0543555A1, “Phosphorylated flavanoids in the treatment of viral diseases” (MERRELL DOW PHARMACEUTICALS INC., priority 1991, dated 1993).

The structures appear in SMILES notation. Where two headings read alike, the source gives them in different places.

The test system of test [1] is HIV-1. Kind of test: microbe, parasite or virus in culture.
Experimental: (§1) JM cells were infected with HIV-1 for 2 hours at room temperature. The cells were then washed and distributed into duplicate wells containing different concentrations of the test compound and incubated at 37°C. On days 3 and 4 the cells were observed and the syncytia counted and on day 4 the supernatant fluid was also harvested for detection of p24 viral core antigen using the Abbott EIA.
Test [2] deals with HIV-1. Particulars: for p24: day 4 supernatant.
Experimental: as §1
Setting [3] is: Human immunodeficiency virus 1, 72 h, read-out: Mean Syncytial Counts Day 3 %.
Setting [4] is: Human immunodeficiency virus 1, 96 h, read-out: Mean Syncytial Counts Day 4 %.

Consider `Nc1ccn([C@H]2CC[C@@H](CO)O2)c(=O)n1` [ddC, reference compound], for which, in the test with HIV-1 [1] (setting [3]), the activity at 0.1 µM turned out to be 37%, the activity at 0.3 µM turned out to be 0%, the activity at 1 µM worked out at 0% and the activity at 3 µM was determined as 0%. For the same compound, in the test with HIV-1 [1] (setting [3]), the activity at 10 µM came out at 0%. Further, in the test on HIV-1 [1] (setting [4]), the activity at 0.1 µM amounted to 37%, the activity at 0.3 µM was 7%, the activity at 1 µM was found to be 0% and the activity at 3 µM was determined as 0%. Moreover, the activity at 10 µM in the test on HIV-1 [1] (setting [4]) was found to be 0%. Moreover, in the test with HIV-1 [2] (Conc 0.1 µM), the “Mean Syncytial Counts Day 3” value is listed as 21 and the “Mean Syncytial Counts Day 4” value is listed as 31. Also, in the test on HIV-1 [2] (Conc 0.3 µM), the “Mean Syncytial Counts Day 3” value came out at 0, the “Mean Syncytial Counts Day 4” value was 6 and the “p24” value is 341 pg/mL. In the test with HIV-1 [2] (Conc 1 µM), the “Mean Syncytial Counts Day 3” value was 0, the “Mean Syncytial Counts Day 4” value was 0 and the “p24” value worked out at 199 pg/mL. In the test with HIV-1 [2] (Conc 3 µM), the “Mean Syncytial Counts Day 3” value is reported as 0, the “Mean Syncytial Counts Day 4” value was found to be 0 and the “p24” value was determined as 98 pg/mL. Moreover, in the test with HIV-1 [2] (Conc 10 µM), the “Mean Syncytial Counts Day 3” value was found to be 0, the “Mean Syncytial Counts Day 4” value was found to be 0 and the “p24” value is 132 pg/mL.
